Results taken from patent US20020115721A1, “Esters of alkycarboxy amino acids as prodrugs of modulators of the kainate receptor” (Annovis, Inc., priority 2000, published 2002).

Assays:
[1] = test system: Sprague-Dawley rats; test: Rat allodynia/hyperalgesia pain model after capsaicin; type: in vivo
Protocol: This test is to determine the extent of protection by a test compound to neuropathic pain sensations. With the rat standing on an elevated perforated floor, mechano-allodynia is measured by applying from beneath a graded series of von Frey hairs to the mid-plantar region of the effected paws. The hair that evokes at least one withdrawal response is designated the threshold level when compared to the sham treated nerve. Alternatively, the paw can be illuminated with a noxious radiant heat and the time to paw withdrawal is measured.
The model is described by Bennett, Neuro. Report 5, 1438-1440 (1994), and references cited therein. He measures changes in withdrawal latency after chronic constriction injury; a rat is prepared by bilaterally exposing the sciatic nerves on both thighs. On one side, loosely fitting constrictive ligatures are tied around the nerve; the other side is sham manipulated but not ligated. The model can also be used to measure increases in sensitivity and decreases in latency after injection of an irritating or pain inducing substance such as capsaicin or carrageenan.
A total of 40 adult male Sprague-Dawley rats, 250-300 g, were used. Baseline measures of withdrawal responses evoked by heat and mechanical stimuli were determined for each hind paw and obtained for at least 4 consecutive days until withdrawal and latency responses were stable. Four groups of 10 rats each were sorted to establish equivalent baseline mean responses to heat and mechanical stimuli. Each group was randomly assigned to 1 of 4 treatment conditions: vehicle, 10, 50, or 100 mg/kg compound i.p. On test day, withdrawal responses to heat and mechanical stimuli were measured before intraperitoneal injection of the treatment condition. […] Capsaicin (10 μl of 0.1%, intraplantar) was administered 30 minutes after i.p. injection. Withdrawal responses to heat and mechanical stimuli were again measured 5 and 30 minutes post capsaicin. The contralateral paw served as an internal control. The experimenter was blind to the treatment condition.
The prodrugs were tested in the allodynia model after inducing pain with capsaicin.
A total of 24 adult male Sprague-Dawley rats, 250-300 g., were used and treated according to protocol described above using (2S,4R)-4-methyl glumatic acid methyl ester.
A total of 33 adult male Sprague-Dawley rats, 250-300 g., were treated according to protocol described above using (2S,4R)-4-methyl glumatic acid ethyl ester. The concentrations of the compound were […].

[2] = Prodrug hydrolysis to the acid form in plasma; type: in vitro ADME
Description: The ester bond in any of the disclosed prodrug compositions can be readily cleaved in vivo. Therefore, prodrug compositions of Formula I can be hydrolyzed to the corresponding acids form in plasma.

[3] = test system: Sprague-Dawley rats; test: Rat allodynia/hyperalgesia pain model after capsaicin; type: in vivo; details: 1 hour before capsaicin
[4] = test system: AMPA receptor as compared to the kainate receptor; details: selectivity ratio; cited from earlier work
[5] = target: glycine site of the NMDA receptor (Homo sapiens, UniProt Q05586); details: cited from earlier work
[6] = cited from earlier work

COC(=O)[C@H](N)C[C@H](C)C(=O)OC.Cl
melting point: 138 to 139 °C

CCOC(=O)[C@H](N)C[C@H](C)C(=O)OCC.Cl
melting point: 158 to 160 °C

C[C@H](C[C@H](N)C(=O)O)C(=O)O [Compound 1, (2S,4R)-4-Methyl glutamic acid]
blocking hyperalgesia to heat ([1]; 10, 50, 100 mg/kg i.p., capsaicin): effective | blocking mechanical hyperalgesia ([1]; 10, 50, and 100 mg/kg i.p., capsaicin intraplantar 30 minutes after injection): effective | mechanical hyperalgesia versus vehicle (p<0.05) ([1]; 5 minutes post capsaicin, all doses (10, 50, 100 mg/kg i.p.)): significantly different from vehicle | hyperalgesia to heat versus vehicle ([1]; 30 minute time point): not significantly different from vehicle | mechanical hyperalgesia versus vehicle (p<0.05) ([1]; 30 minutes post capsaicin, 100 mg/kg i.p. only): remained significantly different from vehicle | hyperalgesia to heat versus vehicle (p<0.05) ([1]; all three doses (10, 50, 100 mg/kg i.p.), early time point): significantly different from vehicle

COC(=O)[C@H](C)C[C@H](N)C(=O)OC.Cl [Compound 2, (2S,4R)-4-Methyl Glutamic Acid Dimethyl Ester Hydrochloride]
hyperalgesia to mechanical stimuli (p<0.05) ([1]; 10 mg/kg i.p., capsaicin): reduced | hyperalgesia to radiant heat (p<0.05) ([1]; 10 mg/kg i.p., capsaicin): reduced | hydrolysis to (2S,4R)-4-methyl glutamic acid (1) [2]: readily hydrolyzed | melting point: 138 to 139 °C | prevention of development of hyperalgesia ([3]; 0.1 mg/kg i.p.): no effect | hyperalgesia prevention ([3]; 1 mg/kg i.p.): about 40% | prevention of development of hyperalgesia ([3]; 10 and 50 mg/kg i.p.): totally prevented

CCOC(=O)[C@H](C)C[C@H](N)C(=O)OCC.Cl [Compound 3, (2S,4R)-4-Methyl Glutamic Acid Diethyl Ester Hydrochloride]
blocking hyperalgesia to heat ([1]; 0.1 to 50 mg/kg i.p., capsaicin): not effective | blocking mechanical hyperalgesia (p<0.05) ([1]; 10 and 50 mg/kg i.p., capsaicin): effective | melting point: 158 to 160 °C

NS(=O)(=O)c1cccc2c3c(cc([N+](=O)[O-])c12)=NC(=O)C(=O)N=3 [NBQX, 6-nitro-7-sulfamoylbenzoquinoxaline-2,3-dione]
affinity for AMPA receptor as compared to kainate receptor [4]: thirty | binding to glycine site of NMDA receptor [5]: non-specifically binds | solubility in water [6]: very limited
